Test results taken from patent US20260217717A1, “CDK2 INHIBITORS” (BLUEPRINT MEDICINES CORPORATION, priority 2023, published 2026).

Columns and labels:
CDK2/Cyclin E = target: T1, CDK2/Cyclin E (Homo sapiens, UniProt P24941); assay: CDK2/Cyclin E enzymatic phosphorylation assay (Caliper mobility shift); format: biochemical; conditions: read-out: Enzyme CDK2/cyclin E IC50; note: 1.0 mM ATP or ATP Km
T1 construct: purchased Eurofins 14-475
Description: (§1) Reactions proceeded until between 10% to 20% total peptides were phosphorylated at room temperature (25° C.) and were terminated with 35 mM 2,2′,2″,2′″-(ethane-1,2-diyldinitrilo)tetraacetic acid (EDTA). Product was detected using the Caliper mobility shift detection method where the phosphorylated peptide (product) and substrate were electrophoretically separated and measured. Percent activity was plotted against log concentration of compound and points to generate an apparent IC50.

CDK1/Cyclin B1 = target: T2, CDK1/Cyclin B1 (Homo sapiens, UniProt P06493); assay: CDK1/Cyclin B1 enzymatic phosphorylation assay (Caliper mobility shift); format: biochemical; conditions: read-out: Enzyme CDK1/cyclin B1 IC50
T2 construct: GST; purchased BPS 40454
T2 sequence (P06493 whole entry): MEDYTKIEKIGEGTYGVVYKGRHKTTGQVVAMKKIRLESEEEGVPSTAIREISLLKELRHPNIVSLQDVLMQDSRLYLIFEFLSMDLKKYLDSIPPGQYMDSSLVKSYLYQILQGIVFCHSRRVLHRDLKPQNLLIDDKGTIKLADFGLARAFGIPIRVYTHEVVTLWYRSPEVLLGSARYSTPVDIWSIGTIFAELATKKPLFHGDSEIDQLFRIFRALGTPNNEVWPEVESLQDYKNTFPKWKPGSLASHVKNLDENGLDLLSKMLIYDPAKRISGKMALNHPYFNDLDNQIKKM
T2 sequence (P14635 whole entry partner): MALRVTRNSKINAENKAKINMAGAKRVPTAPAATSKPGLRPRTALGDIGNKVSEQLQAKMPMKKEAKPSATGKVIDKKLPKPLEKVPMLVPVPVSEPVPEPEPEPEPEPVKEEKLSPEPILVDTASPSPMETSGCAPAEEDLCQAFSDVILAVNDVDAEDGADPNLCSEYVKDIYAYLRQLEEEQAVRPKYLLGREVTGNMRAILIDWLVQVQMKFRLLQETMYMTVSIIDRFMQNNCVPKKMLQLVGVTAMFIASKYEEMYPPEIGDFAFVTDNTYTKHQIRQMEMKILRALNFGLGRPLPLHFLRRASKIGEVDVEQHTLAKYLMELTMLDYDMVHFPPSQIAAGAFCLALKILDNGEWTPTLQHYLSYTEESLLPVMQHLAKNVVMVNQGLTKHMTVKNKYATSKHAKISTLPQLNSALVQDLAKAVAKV
Description: as §1

| Compound | IC50 (CDK2/Cyclin E) [nM] | IC50 (CDK1/Cyclin B1) [nM] |
| --- | --- | --- |
| O[C@H]1CC[C@H](n2ncc3ncc(Nc4cc(C5COC5)[nH]n4)nc32)CC1 [Example 38, (1r,4r)-4-(6-((5-(oxetan-3-yl)-1H-pyrazol-3-yl)amino)-1H-pyrazolo[3,4-b]pyrazin-1-yl)cyclohexan-1-ol] | 3.5 | 509 |
| CC(C)c1cc(Nc2cnc3cnn(CC4CCN(C)CC4)c3n2)n[nH]1 [Example 64, N-(5-isopropyl-1H-pyrazol-3-yl)-1-((1-methylpiperidin-4-yl)methyl)-1H-pyrazolo[3,4-b]pyrazin-6-amine] | 56 | 2080 |
| CC(C)c1cc(Nc2cnc3cnn(CC4CCNCC4)c3n2)n[nH]1 [Example 62, N-(5-isopropyl-1H-pyrazol-3-yl)-1-(piperidin-4-ylmethyl)-1H-pyrazolo[3,4-b]pyrazin-6-amine] | 16 | 1930 |
| CC(C)c1cc(Nc2cnc3cnn([C@@H](C)c4cccnc4)c3n2)n[nH]1 [Example 29, (S)-N-(5-isopropyl-1H-pyrazol-3-yl)-1-(1-(pyridin-3-yl)ethyl)-1H-pyrazolo[3,4-b]pyrazin-6-amine] | 0.2 | 159 |
| COc1ncccc1[C@H](C)n1ncc2ncc(Nc3cc(C)[nH]n3)nc21 [Example 23, (S)-1-(1-(2-methoxypyridin-3-yl)ethyl)-N-(5-methyl-1H-pyrazol-3-yl)-1H-pyrazolo[3,4-b]pyrazin-6-amine] | 14.1 | 1540 |
| C[C@@H](c1cc(Nc2cnc3cnn(CC4CCOCC4)c3n2)n[nH]1)C(F)F (single isomer, unassigned) [Example 21] | 5.4 | 595 |
| Cc1nc2cnn(Cc3cccnc3)c2nc1Nc1cc(C(C)C)[nH]n1 [Example 18, N-(5-isopropyl-1H-pyrazol-3-yl)-5-methyl-1-(pyridin-3-ylmethyl)-1H-pyrazolo[3,4-b]pyrazin-6-amine] | 15.1 | 3230 |
| CCc1cc(Nc2cnc3cnn([C@@H](C)c4cccnc4)c3n2)n[nH]1 [Example 32, (S)-N-(5-ethyl-1H-pyrazol-3-yl)-1-(1-(pyridin-3-yl)ethyl)-1H-pyrazolo[3,4-b]pyrazin-6-amine] | 1.9 | 465 |
| C[C@@H](c1ccccc1)n1ncc2ncc(Nc3cc(C4COC4)[nH]n3)nc21 [Example 42, (S)-N-(5-(oxetan-3-yl)-1H-pyrazol-3-yl)-1-(1-phenylethyl)-1H-pyrazolo[3,4-b]pyrazin-6-amine] | 2.3 | 592 |
| Cc1nn(CC2CCOCC2)c2nc(Nc3cc(C4COC4)[nH]n3)cnc12 [Example 8, 3-methyl-N-(5-(oxetan-3-yl)-1H-pyrazol-3-yl)-1-((tetrahydro-2H-pyran-4-yl)methyl)-1H-pyrazolo[3,4-b]pyrazin-6-amine] | 37.1 | 2580 |
| CC[C@@H]([C@H](C)O)n1ncc2ncc(Nc3cc(C(C)C)[nH]n3)nc21 (single isomer, unassigned) [Example 13, (2S,3S)-3-(6-((5-isopropyl-1H-pyrazol-3-yl)amino)-1H-pyrazolo[3,4-b]pyrazin-1-yl)pentan-2-ol or (2S,3R)-3-(6-((5-isopropyl-1H-pyrazol-3-yl)amino)-1H-pyrazolo[3,4-b]pyrazin-1-yl)pentan-2-ol] | 2.3 | 907 |
| Cc1cc(Nc2cnc3cnn([C@@H](C)c4cccnc4Cl)c3n2)n[nH]1 [Example 26, (S)-1-(1-(2-chloropyridin-3-yl)ethyl)-N-(5-methyl-1H-pyrazol-3-yl)-1H-pyrazolo[3,4-b]pyrazin-6-amine] | 4.2 | 1060 |
| CC(C)c1cc(Nc2cnc3cnn(C[C@@H]4CCOC4)c3n2)n[nH]1 (single isomer, unassigned) [Example 12, (S)-N-(5-isopropyl-1H-pyrazol-3-yl)-1-((tetrahydrofuran-3-yl)methyl)-1H-pyrazolo[3,4-b]pyrazin-6-amine or (R)-N-(5-isopropyl-1H-pyrazol-3-yl)-1-((tetrahydrofuran-3-yl)methyl)-1H-pyrazolo[3,4-b]pyrazin-6-amine] | 0.5 | 119 |
| Cc1cc(Nc2cnc3cnn(Cc4cccnc4)c3n2)n[nH]1 [Example 3, N-(5-methyl-1H-pyrazol-3-yl)-1-(pyridin-3-ylmethyl)-1H-pyrazolo[3,4-b]pyrazin-6-amine] | 78.1 | 9140 |
| Fc1cccc(Cn2ncc3ncc(Nc4cc(C5COC5)[nH]n4)nc32)c1 [Example 46, 1-(3-fluorobenzyl)-N-(5-(oxetan-3-yl)-1H-pyrazol-3-yl)-1H-pyrazolo[3,4-b]pyrazin-6-amine] | 7.9 | 1060 |
| CC(C)c1cc(Nc2cnc3cnn(C[C@H](C)CO)c3n2)n[nH]1 [Example 61, (S)-3-(6-((5-isopropyl-1H-pyrazol-3-yl)amino)-1H-pyrazolo[3,4-b]pyrazin-1-yl)-2-methylpropan-1-ol] | 13.2 | 1880 |
| Cc1nn(Cc2cccnc2)c2nc(Nc3cc(C4COC4)[nH]n3)cnc12 [Example 4, 3-methyl-N-(5-(oxetan-3-yl)-1H-pyrazol-3-yl)-1-(pyridin-3-ylmethyl)-1H-pyrazolo[3,4-b]pyrazin-6-amine] | 36.3 | 5000 |
| CC(C)c1cc(Nc2cnc3cnn(C[C@@H]4CCCOC4)c3n2)n[nH]1 (single isomer, unassigned) [Example 10, (S)-N-(5-isopropyl-1H-pyrazol-3-yl)-1-((tetrahydro-2H-pyran-3-yl)methyl)-1H-pyrazolo[3,4-b]pyrazin-6-amine or (R)-N-(5-isopropyl-1H-pyrazol-3-yl)-1-((tetrahydro-2H-pyran-3-yl)methyl)-1H-pyrazolo[3,4-b]pyrazin-6-amine] | 0.5 | 147 |
| c1nc2cnn(CC3CCOCC3)c2nc1Nc1cc(C2CC2)[nH]n1 [Example 36, N-(5-cyclopropyl-1H-pyrazol-3-yl)-1-((tetrahydro-2H-pyran-4-yl)methyl)-1H-pyrazolo[3,4-b]pyrazin-6-amine] | 0.5 | 83.6 |
| c1nc2cnn(CC3CCOCC3)c2nc1Nc1cc(C2COC2)[nH]n1 [Example 35, N-(5-(oxetan-3-yl)-1H-pyrazol-3-yl)-1-((tetrahydro-2H-pyran-4-yl)methyl)-1H-pyrazolo[3,4-b]pyrazin-6-amine] | 11.3 | 877 |
| CC[C@H]([C@H](C)O)n1ncc2ncc(Nc3cc(C(C)C)[nH]n3)nc21 (single isomer, unassigned) [Example 14, (2S,3R)-3-(6-((5-isopropyl-1H-pyrazol-3-yl)amino)-1H-pyrazolo[3,4-b]pyrazin-1-yl)pentan-2-ol or (2S,3S)-3-(6-((5-isopropyl-1H-pyrazol-3-yl)amino)-1H-pyrazolo[3,4-b]pyrazin-1-yl)pentan-2-ol] | 23.9 | 3130 |
| CC(C)c1cc(Nc2cnc3cnn(C[C@H]4CCOC4)c3n2)n[nH]1 (single isomer, unassigned) [Example 11, (R)-N-(5-isopropyl-1H-pyrazol-3-yl)-1-((tetrahydrofuran-3-yl)methyl)-1H-pyrazolo[3,4-b]pyrazin-6-amine or (S)-N-(5-isopropyl-1H-pyrazol-3-yl)-1-((tetrahydrofuran-3-yl)methyl)-1H-pyrazolo[3,4-b]pyrazin-6-amine] | 3.8 | 1270 |
